Paper PMC5908295 (Oncotarget, 2018)
Where two headings read alike, the source gives them in different places.

How the values were obtained:
MV-4-11 [1] = test: MTS viability assay, 72 h
Experimental: (§4) On the same day, 50 μL of medium containing tested inhibitor was added to the wells. Each compound was tested at 8 concentrations, in triplicates. As a negative control, the medium containing 0.1% DMSO was used. […] Staurosporine was used at 10 μM as a positive control. One the day of drug addition, basal signal from untreated cells was measured from in triplicate to determine time zero (T0). […] GI50 and LC50 values were extrapolated from a variable (four-parameter) dose-response curve fitted in GraphPad Prism.

MOLM-13 = test: MTS viability assay, 72 h; conditions: MOLM-13, 72 h; for CC50: read-out: LC50
Experimental: (§5) 15-25 ×10^3 of MV-4-11, MOLM-13, MOLM-14, MOLM-16, KG-1, Eol-1, SKM-1, PL-21, GDM-1, SKNO-1, RS4;11, Kasumi-3 and Kasumi-6 cells were seeded in 150 μL of culture medium onto individual wells in a 96 well plates, in triplicates. On the same day, 50 μL of medium containing tested inhibitor was added to the wells. Each compound was tested at 8 concentrations, in triplicates. As a negative control, the medium containing 0.1% DMSO was used. […] Staurosporine was used at 10 μM as a positive control. One the day of drug addition, basal signal from untreated cells was measured from in triplicate to determine time zero (T0). […] GI50 and LC50 values were extrapolated from a variable (four-parameter) dose-response curve fitted in GraphPad Prism.

MOLM-14 = test: MTS viability assay, 72 h; conditions: Homo sapiens, MOLM-14, 72 h
Experimental: as §5

MOLM-16 = test: MTS viability assay, 72 h
Experimental: as §4

KG-1 = test: MTS viability assay, 72 h; conditions: KG-1, 72 h; for CC50: read-out: LC50
Experimental: as §5

EOL-1 = test: MTS viability assay, 72 h
Experimental: as §5

KASUMI-3 = test: MTS viability assay, 72 h; conditions: for CC50: read-out: LC50
Experimental: as §5

KASUMI-6 = test: MTS viability assay, 72 h
Experimental: as §5

OCI-AML-2 = test: MTS viability assay, 72 h
Experimental: as §4

OCI-AML-3 = test: MTS viability assay, 72 h; conditions: OCI-AML-3, 72 h
Experimental: as §5

MOLM-6 = test: MTS viability assay, 72 h; conditions: for CC50: read-out: LC50
Experimental: as §5

RS4;11 = test: MTS viability assay, 72 h; conditions: for CC50: read-out: LC50
Experimental: as §5

SKNO-1 = test: MTS viability assay, 72 h; conditions: SKNO-1, 72 h
Experimental: as §5

SKM-1 = test: MTS viability assay, 72 h; conditions: SKM-1, 72 h; for CC50: read-out: LC50
Experimental: as §4

SIG-M5 = test: MTS viability assay, 72 h; conditions: SIG-M5, 72 h; for CC50: read-out: LC50
Experimental: as §4

GDM-1 = test: MTS viability assay, 72 h; conditions: GDM-1, 72 h
Experimental: as §5

PL-21 = test: MTS viability assay, 72 h; conditions: PL-21, 72 h
Experimental: as §5

MOLM-13 xenografts = test: MOLM-13 subcutaneous xenograft; type: in vivo; conditions: MOLM-13, SCID mice; AC220 10 mg/kg QD, other doses not given
Source text: (§1) All animals were handled in strict accordance with good animal practice as defined by the relevant national and local animal welfare bodies. SCID and SCID/beige C.B-17 mice were provided by Harlan Laboratories or Charles River Laboratories, and were maintained in pathogen free conditions. For the xenograft experiments, age-matched (9-11 weeks old) females were used. 5×10^6 of MV-4-11 or MOLM-16 cells were suspended in a mixture (1:1, v:v) of PBS with Matrigel (BD Biosciences,) and injected subcutaneously (sc), in a total volume of 100 μL, above the groin on the right hind limb. For MOLM-13 and KG-1 cells, a mixture (3:1, v:v) of PBS and Matrigel HC (BD Bioscience,) was used to inject 5 × 10^6 of cell per mouse subcutaneously (sc), in a total volume of 100 μL. When tumors reached 100-130 mm^3, mice were randomized into uniform groups (6-9 mice per group) and subsequently administered the compound. […] At the end of the experiment, mice were anesthetized with isofluran and blood samples for total cell counts and biochemistry were obtained by retro-orbital bleeding. […] 5×10^6 cells suspended in a mixture (3:1, v:v) of PBS and Matrigel were injected as described above. […] Tumor volume was monitored every second day and calculated using the formula: TV = (a^2×b)/2, where “a” is the short axis in millimeters, and “b” is the long axis in millimeters. Body weight was assessed every day.

KG-1 (FLT3-WT) tumor = test: KG-1 subcutaneous xenograft; type: in vivo; conditions: KG-1, SCID mice; doses not given
Source text: as §1

MV-4-11 [2] = test: Drug interactions (combination index), MTS; type: cell-based; conditions: MV-4-11
Experimental: and AC220 in AML cell lines was assessed using an MTS assay. Cells viability was measured after 72 h incubation with three-fold serial dilutions of compounds, starting at 10 µM concentration. Obtained data were presented as percentage of viable cells compared with control (untreated) cells viability. Error bars indicate SD.
11 cells. Combination index (CI) are shown on the Y axis and compound concentrations are shown on X and Z axes. Values […] and below 0.7- a synergy between tested compounds. Values above 1 indicate an antagonistic effect.
(1 picture or pasted object on this page, not shown here)

[3] = test system: MOLM-14 cells transduced with FLT3 TKD point mutations (D835Y, D835V and F691L); test: MTS viability of MOLM-14 cells with FLT3 alleles; type: cell-based; conditions: 72 h
MOLM-16 (FLT3-WT) cells = test: Western blot of FLT3/PIM downstream signaling; type: cell-based; conditions: MOLM-16, 4 hours
Experimental: (§2) Thereafter, we assessed the activities of FLT3-ITD – induced key pro-survival signaling pathways; STAT5, RAF/MEK/ERK and PI3K/AKT (Figure 3). […] Since the expression of a major anti-apoptotic BCL2 family member, MCL1, is regulated by translation, and PIM kinases regulate protein synthesis through 4EBP1, we also assessed the abundance of MCL1.
(§3) Cells were collected, washed twice with cold PBS, and lysed in RIPA buffer and kept on ice for 10 min. Tumor specimens from xenograft studies were homogenized in RIPA buffer using OMNI TH Tissue Homogenizer and kept on ice for 30 min. After incubation, cell and tumor lysates were centrifuged at 13,000×g at 4°C for 10 min and the supernatants were stored at −80°C until use. Protein concentration was measured using the Bradford method. For SDS-PAGE, 50 μg of protein in the Laemmli sample buffer was loaded onto 10% polyacrylamide gels and electrophoresed. Thereafter, proteins were transferred onto polyvinylidene fluoride (PVDF) membranes (Millipore). After blocking with 5% non-fat dry milk/TBS-T or 2% BSA/TBS-T, membranes were incubated with specific primary antibodies (listed in Supplementary Table 2) at 4 °C overnight. After extensive washing in PBS-T, membranes were incubated for 60 min with appropriate secondary peroxidase-conjugated IgG. The immunoreactive proteins were detected using an enhanced chemiluminescence (ECL) substrate (GE Healthcare) and visualized with Hyperfilm-ECL (GE Healthcare Biosciences).

[4] = test system: MV-4-11 (FLT3-ITD+) cells; test: Western blot of FLT3/PIM downstream signaling; type: cell-based; conditions: MV-4-11, 4 hours
Experimental: as §2, §3

With `CC(C)(C)c1cc(NC(=O)Nc2ccc(-c3cn4c(n3)sc3cc(OCCN5CCOCC5)ccc34)cc2)no1` [AC220] the GI50 (MV-4-11 [1]; Homo sapiens, MV4-11, 72 h) was less than 5 nM, the CC50 (MV-4-11 [1]; Homo sapiens, MV4-11, 72 h, read-out: LC50) was less than 5 nM and the GI50 (MOLM-13; Homo sapiens) was less than 5 nM. The CC50 (MOLM-13; Homo sapiens) was 42 nM, the GI50 (MOLM-14) was less than 5 nM and the CC50 (MOLM-14; read-out: LC50) was 196 nM. It also gave a GI50 (MOLM-16; MOLM16, 72 h) of 688 nM, a CC50 (MOLM-16; MOLM16, 72 h, read-out: LC50) of 8230 nM and a GI50 (KG-1; Homo sapiens) of 210 nM. The CC50 (KG-1; Homo sapiens) was greater than 10000 nM, the GI50 (EOL-1; Homo sapiens, EOL1, 72 h) was less than 5 nM and the GI50 (KASUMI-3; Kasumi-3, 72 h) was less than 5 nM. It also gave a CC50 (KASUMI-3; Kasumi-3, 72 h) of less than 5 nM, a GI50 (KASUMI-6; 72 h) of less than 5 nM and a GI50 (OCI-AML-2; Homo sapiens, OCI-AML2, 72 h) of 499 nM. The CC50 (OCI-AML-2; Homo sapiens, OCI-AML2, 72 h, read-out: LC50) was 1240 nM, the GI50 (OCI-AML-3; Homo sapiens) was 1180 nM and the CC50 (OCI-AML-3; Homo sapiens, read-out: LC50) was greater than 10000 nM. For the same molecule, the GI50 (MOLM-6; 72 h) was 681 nM, the CC50 (MOLM-6; 72 h) was greater than 10000 nM and the GI50 (RS4;11; Homo sapiens, RS4-11, 72 h) was 132 nM. For the same molecule, the CC50 (RS4;11; Homo sapiens, RS4-11, 72 h) was 6960 nM, the GI50 (SKNO-1) was 6 nM and the GI50 (SKM-1; Homo sapiens) was 1130 nM. It also gave a CC50 (SKM-1; Homo sapiens) of 7790 nM, a GI50 (SIG-M5; Homo sapiens) of 558 nM and a CC50 (SIG-M5; Homo sapiens) of 3090 nM. For the same molecule, the GI50 (GDM-1; Homo sapiens) was 33 nM and the GI50 (PL-21) was 412 nM.

For `N[C@@H]1CCCN(c2c(/C=C3\SC(=O)NC3=O)cccc2-c2ccccc2)C1` [AZD1208], the TGI (MOLM-13 xenografts) was 19.5%, the TGI (KG-1 (FLT3-WT) tumor) was 59.9% and the “combination of AZD1208 and AC220” value (MV-4-11 [2]) was “synergistic effect”. The “viability of MOLM-14 cells with FLT3-TKD mutants versus FLT3-ITD or parental cells” value [3] was “only marginally affected the viability”, the “S6 (S235/236) phosphorylation” value (MOLM-16 (FLT3-WT) cells) was “profound inhibition” and the MCL1 abundance [4] was “did not alter”. The STAT5 signaling [4] was “did not change”, the GI50 (MV-4-11 [1]; MV-4-11, 72 h, dilutions starting at 10 µM) was 1460 nM and the GI50 (MOLM-13; dilutions starting at 10 µM) was 306 nM. For the same molecule, the CC50 (MOLM-13; 50% death relative to T0) was greater than 10000 nM, the GI50 (MOLM-16; MOLM-16, 72 h, dilutions starting at 10 µM) was 16 nM and the GI50 (KG-1; dilutions starting at 10 µM) was 20 nM. It also gave a CC50 (KG-1; 50% death relative to T0) greater than 10000 nM, a GI50 (EOL-1; EOL-1, 72 h, dilutions starting at 10 µM) of 89 nM and a GI50 (KASUMI-3; KASUMI-3, 72 h, dilutions starting at 10 µM) of 57 nM. For the same molecule, the CC50 (KASUMI-3; KASUMI-3, 72 h, 50% death relative to T0) was 4630 nM, the GI50 (KASUMI-6; KASUMI-6, 72 h, dilutions starting at 10 µM) was 19 nM and the GI50 (OCI-AML-2; OCI-AML-2, 72 h, dilutions starting at 10 µM) was 333 nM. For the same molecule, the GI50 (OCI-AML-3; dilutions starting at 10 µM) was greater than 10000 nM, the GI50 (MOLM-6; MOLM-6, 72 h, dilutions starting at 10 µM) was 973 nM and the CC50 (MOLM-6; MOLM-6, 72 h, 50% death relative to T0) was greater than 10000 nM. For the same molecule, the GI50 (RS4;11; RS4;11, 72 h, dilutions starting at 10 µM) was 4220 nM, the CC50 (RS4;11; RS4;11, 72 h, 50% death relative to T0) was greater than 10000 nM and the GI50 (SKNO-1; dilutions starting at 10 µM) was 5 nM. The GI50 (SKM-1; dilutions starting at 10 µM) was greater than 10000 nM, the CC50 (SKM-1; 50% death relative to T0) was greater than 10000 nM and the GI50 (SIG-M5; dilutions starting at 10 µM) was greater than 10000 nM. It also gave a CC50 (SIG-M5; 50% death relative to T0) greater than 10000 nM, a GI50 (GDM-1; dilutions starting at 10 µM) of 506 nM and a GI50 (PL-21; dilutions starting at 10 µM) greater than 10000 nM.
